The numbers were not newly measured in PMC7827648 (Molecules, 2021), which cites them from elsewhere.

Parameters in all cases: method as in doi:10.1055/s-0036-1588486
The subject of data set [1] is RD (rhabdomyosarcoma) cells. Particulars: read-out: IC50, 50% inhibition of the cell population growth, RD, data taken from ref [3]; cited from earlier work.
Data set [2] relates to A549 (lung adenocarcinoma) cells. The following applies: read-out: IC50, 50% inhibition of the cell population growth, A549, data taken from ref [3]; cited from earlier work.
For data set [3], the system named is HCT116 (intestinal carcinoma) cells. The following applies: read-out: IC50, 50% inhibition of the cell population growth, HCT116, data taken from ref [3]; cited from earlier work.
In data set [4] the test system is HeLa (adenocarcinoma of the cervix uterus) cells. Particulars: read-out: IC50, 50% inhibition of the cell population growth, HeLa, data taken from ref [3]; cited from earlier work.

A word on the IC50: it is the concentration that inhibits the measured activity by half. On to `CCOc1ccc(-c2c(C=O)c(-c3ccccc3)n3c2-c2cc(OCC)c(OCC)cc2CC3)cc1OCC` [Compound 2], for which the IC50 was 365 ± 23 µM in data set [1], 229 ± 21 µM in data set [2] and 183 ± 0.1 µM in data set [3].

For the compound `CCOc1ccc(-c2c(C=O)cn3c2-c2cc(OCC)c(OCC)cc2CC3)cc1OCC` [Compound 1], the IC50 in data set [4] is 44.5 ± 2 µM; in data set [1], 21.3 ± 1.2 µM; in data set [2], 19.7 ± 0.3 µM; in data set [3], 11.8 ± 0.1 µM.
